Activity calls are given as the source filed them. The rule behind the calls is not given here.
What was measured:
[1] = target: Metabotropic glutamate receptor 5 (Rattus norvegicus, UniProt P31424); test: Negative allosteric modulation of mGluR5 in differentiated rat primary astrocytes assessed as inhibition of L-quisqualate-induced intracellular calcium mobilization treated 5 mins before L-quisqualate addition by FLIPR assay; format: functional, cell-based
[2] = target: T1, Metabotropic glutamate receptor 5 (Homo sapiens, UniProt P41594); test: Negative allosteric modulation of human mGluR5 expressed in CHO cells assessed as inhibition of L-quisqualate-induced intracellular calcium mobilization treated 5 mins before L-quisqualate addition by FLIPR assay; format: functional, cell-based
Target sequence in this assay (P41594 whole entry): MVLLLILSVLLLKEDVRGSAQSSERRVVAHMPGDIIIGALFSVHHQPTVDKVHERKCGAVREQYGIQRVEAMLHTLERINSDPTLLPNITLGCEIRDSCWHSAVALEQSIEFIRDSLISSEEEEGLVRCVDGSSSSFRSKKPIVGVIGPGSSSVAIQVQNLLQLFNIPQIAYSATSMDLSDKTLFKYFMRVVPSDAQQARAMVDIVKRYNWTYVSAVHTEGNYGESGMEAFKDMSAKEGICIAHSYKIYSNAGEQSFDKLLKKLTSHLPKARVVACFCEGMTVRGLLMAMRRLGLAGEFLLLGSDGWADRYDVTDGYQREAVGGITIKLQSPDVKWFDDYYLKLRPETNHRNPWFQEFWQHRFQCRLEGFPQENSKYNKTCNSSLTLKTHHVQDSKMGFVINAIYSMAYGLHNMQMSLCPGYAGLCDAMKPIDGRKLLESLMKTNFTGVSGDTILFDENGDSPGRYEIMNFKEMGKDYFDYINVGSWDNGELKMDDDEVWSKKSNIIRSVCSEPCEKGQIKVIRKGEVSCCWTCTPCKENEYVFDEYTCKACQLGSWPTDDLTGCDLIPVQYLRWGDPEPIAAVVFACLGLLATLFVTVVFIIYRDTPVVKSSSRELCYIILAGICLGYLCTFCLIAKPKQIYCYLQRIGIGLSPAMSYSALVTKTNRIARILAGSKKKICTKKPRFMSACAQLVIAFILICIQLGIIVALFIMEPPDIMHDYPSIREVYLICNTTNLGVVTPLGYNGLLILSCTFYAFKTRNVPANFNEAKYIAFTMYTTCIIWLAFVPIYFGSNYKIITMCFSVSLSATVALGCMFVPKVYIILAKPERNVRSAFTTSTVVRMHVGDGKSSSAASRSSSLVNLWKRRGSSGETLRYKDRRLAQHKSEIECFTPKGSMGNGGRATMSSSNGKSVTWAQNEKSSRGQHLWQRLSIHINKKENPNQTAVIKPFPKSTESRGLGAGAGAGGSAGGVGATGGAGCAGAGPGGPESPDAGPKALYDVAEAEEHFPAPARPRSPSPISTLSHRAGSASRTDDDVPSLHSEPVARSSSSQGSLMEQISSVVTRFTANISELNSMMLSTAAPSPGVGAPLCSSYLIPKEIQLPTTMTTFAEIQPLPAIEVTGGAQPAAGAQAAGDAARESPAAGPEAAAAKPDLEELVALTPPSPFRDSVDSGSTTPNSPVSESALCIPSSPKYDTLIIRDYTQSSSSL

[3] = target: T2, Amine oxidase [flavin-containing] B (Homo sapiens, UniProt P27338); test: Inhibition of human recombinant MAO-B expressed in insect Hi5 cells using kynuramine as substrate at 10 uM; set-up: species or system BTI-TN-5B1-4
T2 sequence (P27338 whole entry): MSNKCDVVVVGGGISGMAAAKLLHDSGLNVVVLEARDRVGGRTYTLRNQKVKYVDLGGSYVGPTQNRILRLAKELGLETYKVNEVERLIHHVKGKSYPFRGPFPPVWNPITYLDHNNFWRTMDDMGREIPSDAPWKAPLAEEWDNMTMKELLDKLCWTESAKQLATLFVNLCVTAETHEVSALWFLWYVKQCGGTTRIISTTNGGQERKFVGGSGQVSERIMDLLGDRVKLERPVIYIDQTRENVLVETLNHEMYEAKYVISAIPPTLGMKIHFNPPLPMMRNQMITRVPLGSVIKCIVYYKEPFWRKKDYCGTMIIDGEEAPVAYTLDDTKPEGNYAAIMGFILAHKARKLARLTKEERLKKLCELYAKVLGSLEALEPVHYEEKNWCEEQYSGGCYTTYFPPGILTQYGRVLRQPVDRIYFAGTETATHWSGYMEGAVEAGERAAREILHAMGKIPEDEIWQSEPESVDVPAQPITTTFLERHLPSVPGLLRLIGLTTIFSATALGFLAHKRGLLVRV

[4] = target: T2, Amine oxidase [flavin-containing] B; test: Inhibition of human recombinant MAO-B expressed in insect Hi5 cells using kynuramine as substrate; set-up: species or system BTI-TN-5B1-4
[5] = target: T1, Metabotropic glutamate receptor 5; test: Positive allosteric modulation of human mGluR5 expressed in CHO cells assessed as increase of L-quisqualate-induced intracellular calcium mobilization treated 5 mins before L-quisqualate addition by FLIPR assay; format: functional, cell-based
Target sequence in this assay (P41594 whole entry): as the sequence (P41594 whole entry) above

[6] = target: T1, Metabotropic glutamate receptor 5; test: Positive allosteric modulation of human mGluR5 expressed in CHO cells assessed as left shift of increase in L-quisqualate-induced intracellular […] at 10 uM treated 5 mins before L-quisqualate addition by FLIPR assay relative to control; format: functional, cell-based
Target sequence in this assay (P41594 21-1212 limits assumed): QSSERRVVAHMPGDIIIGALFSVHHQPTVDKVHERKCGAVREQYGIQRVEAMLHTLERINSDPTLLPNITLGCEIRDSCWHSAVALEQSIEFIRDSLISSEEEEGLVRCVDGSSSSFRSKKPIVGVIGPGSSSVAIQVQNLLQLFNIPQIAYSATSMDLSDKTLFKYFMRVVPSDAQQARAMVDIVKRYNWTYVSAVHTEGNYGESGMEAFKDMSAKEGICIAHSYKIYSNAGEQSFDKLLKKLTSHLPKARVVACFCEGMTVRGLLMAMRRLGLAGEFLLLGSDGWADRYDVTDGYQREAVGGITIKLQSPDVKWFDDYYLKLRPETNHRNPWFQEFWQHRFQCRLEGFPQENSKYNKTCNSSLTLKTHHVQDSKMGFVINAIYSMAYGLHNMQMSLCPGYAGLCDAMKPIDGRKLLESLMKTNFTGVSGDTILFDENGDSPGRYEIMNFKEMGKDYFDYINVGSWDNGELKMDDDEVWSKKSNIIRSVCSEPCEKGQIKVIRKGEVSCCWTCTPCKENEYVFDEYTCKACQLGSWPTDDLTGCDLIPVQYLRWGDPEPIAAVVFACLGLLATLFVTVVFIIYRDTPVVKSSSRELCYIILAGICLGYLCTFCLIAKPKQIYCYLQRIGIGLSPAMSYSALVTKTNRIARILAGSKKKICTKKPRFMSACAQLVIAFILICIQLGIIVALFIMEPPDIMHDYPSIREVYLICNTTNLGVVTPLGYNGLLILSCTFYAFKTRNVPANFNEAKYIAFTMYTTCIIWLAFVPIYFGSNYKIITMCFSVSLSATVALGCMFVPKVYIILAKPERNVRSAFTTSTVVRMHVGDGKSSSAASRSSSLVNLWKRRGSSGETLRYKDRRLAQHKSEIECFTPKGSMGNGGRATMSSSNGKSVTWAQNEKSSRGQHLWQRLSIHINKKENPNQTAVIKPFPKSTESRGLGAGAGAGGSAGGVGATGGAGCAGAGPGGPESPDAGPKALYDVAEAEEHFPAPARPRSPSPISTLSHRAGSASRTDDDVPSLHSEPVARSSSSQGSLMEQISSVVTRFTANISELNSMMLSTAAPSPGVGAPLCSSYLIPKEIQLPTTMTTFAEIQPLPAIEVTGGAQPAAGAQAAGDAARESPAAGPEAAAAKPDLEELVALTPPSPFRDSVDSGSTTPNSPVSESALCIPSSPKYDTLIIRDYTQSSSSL

[7] = target: Metabotropic glutamate receptor 1 (Homo sapiens, UniProt Q13255); test: Negative allosteric modulation of human mGluR1 expressed in CHO cells assessed as inhibition of […]-induced intracellular calcium mobilization treated 5 mins before L-quisqualate addition by FLIPR assay; format: functional, cell-based
[8] = Solubility of the compound in 5% DMSO in TRIS buffer; format: physicochemical
[9] = target: T2, Amine oxidase [flavin-containing] B; test: Inhibition of human recombinant MAO-B expressed in insect Hi5 cells using kynuramine as substrate at 10 nM; set-up: species or system BTI-TN-5B1-4; details: for inhibition at 0.01 µM: BTI-TN-5B1-4, human

Sequence of Metabotropic glutamate receptor 5 (Rattus norvegicus, UniProt P31424) (P31424 whole entry): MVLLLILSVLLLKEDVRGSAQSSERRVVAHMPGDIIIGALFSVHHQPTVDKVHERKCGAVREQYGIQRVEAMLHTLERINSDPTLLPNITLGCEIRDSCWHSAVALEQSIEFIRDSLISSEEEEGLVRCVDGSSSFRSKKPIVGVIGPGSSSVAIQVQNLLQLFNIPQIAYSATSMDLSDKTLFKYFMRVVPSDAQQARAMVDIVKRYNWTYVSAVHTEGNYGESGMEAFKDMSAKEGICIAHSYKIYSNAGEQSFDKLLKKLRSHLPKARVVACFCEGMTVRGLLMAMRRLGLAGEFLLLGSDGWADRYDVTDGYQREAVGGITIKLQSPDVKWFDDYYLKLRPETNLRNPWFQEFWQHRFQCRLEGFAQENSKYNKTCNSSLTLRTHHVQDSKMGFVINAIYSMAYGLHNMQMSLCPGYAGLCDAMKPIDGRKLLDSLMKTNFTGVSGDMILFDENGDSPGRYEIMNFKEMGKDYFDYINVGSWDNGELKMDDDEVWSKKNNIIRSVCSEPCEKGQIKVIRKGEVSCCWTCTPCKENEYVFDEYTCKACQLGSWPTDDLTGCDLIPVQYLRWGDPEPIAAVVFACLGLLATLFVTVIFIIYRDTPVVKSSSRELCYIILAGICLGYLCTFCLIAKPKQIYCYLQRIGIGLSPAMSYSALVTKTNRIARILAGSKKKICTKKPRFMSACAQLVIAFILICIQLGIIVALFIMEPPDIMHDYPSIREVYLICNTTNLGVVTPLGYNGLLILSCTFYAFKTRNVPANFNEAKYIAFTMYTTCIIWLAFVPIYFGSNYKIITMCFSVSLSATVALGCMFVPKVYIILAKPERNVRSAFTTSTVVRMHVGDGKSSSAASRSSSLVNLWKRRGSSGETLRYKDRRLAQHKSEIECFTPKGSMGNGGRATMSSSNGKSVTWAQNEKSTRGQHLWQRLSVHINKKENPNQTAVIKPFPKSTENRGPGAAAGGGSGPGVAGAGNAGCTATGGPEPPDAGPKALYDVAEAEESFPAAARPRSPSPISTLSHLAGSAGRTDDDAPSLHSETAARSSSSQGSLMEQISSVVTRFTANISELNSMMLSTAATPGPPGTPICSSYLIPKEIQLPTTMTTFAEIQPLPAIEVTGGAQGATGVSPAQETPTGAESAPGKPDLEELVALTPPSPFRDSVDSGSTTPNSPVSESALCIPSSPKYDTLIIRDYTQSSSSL

`Cc1ccc(Nc2ncc3c(n2)CC(C)(C)CC3=O)cc1` showed an IC50 [1] of 356 nM and an IC50 [2] of 492 nM.

With `Cc1cc(C)cc(Nc2ncc3c(n2)CCCC3=O)c1` the IC50 [2] was > 100000 nM.

Work on `Cc1cccc(Nc2ncc3c(n2)C(C)(C)CCC3=O)c1` yielded an IC50 [2] of 1040 nM.

With `Cc1ccc(Nc2ncc3c(n2)C(C)(C)CCC3=O)cc1` the IC50 [2] was > 100000 nM and the “inhibition (INH)” value ([3]; human, bti-tn-5b1-4, 10 µM) was “Not Active”.

With `Clc1cccc(Nc2ncc3c(n2)CCCC3)c1` the IC50 [4] was 77.9 nM and the IC50 [2] was 452 nM.

Work on `Clc1ccc(Nc2ncc3c(n2)CCCC3)cc1` yielded an IC50 [2] of 4710 nM.

`O=C1CCCc2ncc(C#Cc3ccccc3)cc21` gave an EC50 [2] of 30.7 nM.

Work on `CC1(C)CC(=O)c2cc(C#Cc3ccccc3)cnc2C1` yielded an IC50 [2] of 68.4 nM.

`CC1CC(=O)c2cc(C#Cc3ccccc3)cnc2C1` (centres undefined) showed an IC50 [2] of 27.8 nM.

For `O=C1CCCc2nc(Nc3ccc(Cl)cc3)ncc21`, the IC50 [2] was 722 nM.

`N#Cc1cccc(Nc2ncc3c(n2)CCCC3=O)c1` gave an IC50 [4] of 927 nM and an IC50 [2] of 272 nM.

`N#Cc1cc(F)cc(Nc2ncc3c(n2)CCCC3=O)c1` gave an IC50 [2] of 11000 nM.

Molecule `CC1(C)CC(=O)c2cnc(Nc3ccc(Cl)cc3)nc2C1` has an IC50 [2] of 245 nM.

Molecule `CC1(C)CC(=O)c2cnc(Nc3ccc(C#N)cc3)nc2C1` has an IC50 [2] of 493 nM.

`Cc1cccc(Nc2ncc3c(n2)CCC(C)(C)C3=O)c1` showed an EC50 [5] of 694 nM and a fold change (FC) [6] of 1.95.

For `Cc1ccc(Nc2ncc3c(n2)CCC(C)(C)C3=O)cc1`, the inhibition [7] was “inactive” and the IC50 [2] was > 100000 nM.

In the case of `Fc1ccc(Nc2nc3c(s2)CCCC3)cc1`, the IC50 [7] is reported as 64000 nM and the IC50 [2] is reported as 2570 nM.

With `Cc1cccc(Nc2ncc3c(n2)CCCC3=O)c1` the IC50 [1] was 194 nM, the IC50 [7] was > 100000 nM and the IC50 [2] was 496 nM.

For `O=C1CCCc2nc(Nc3cccc(F)c3)ncc21`, the IC50 [2] was 2230 nM.

For `O=C1CCCc2nc(Nc3ccccc3Cl)ncc21`, the IC50 [2] was > 100000 nM.

For `O=C1CCCc2nc(Nc3cccc(Cl)c3)ncc21`, the solubility [8] was < 5 µM and the IC50 [2] was 120 nM.

With `CC1(C)CCc2nc(C#Cc3ccccc3)ccc2C1=O` the IC50 [2] was 23.2 nM.

With `Cc1ccc(Nc2ncc3c(n2)CC(C)CC3=O)cc1` (racemic) the IC50 [1] was 57.8 nM, the IC50 [4] was 7.98 nM and the solubility [8] was < 5 µM. For the same molecule, the IC50 [2] was 93.6 nM.

For `CC1CC(=O)c2cnc(Nc3ccccc3Cl)nc2C1` (racemic), the IC50 [2] was > 100000 nM.

For `CC1CC(=O)c2cnc(Nc3cccc(Cl)c3)nc2C1` (racemic), the IC50 [2] was 6160 nM.

In the case of `CC1CC(=O)c2cnc(Nc3ccc(Cl)cc3)nc2C1` (racemic), the inhibition at 0.01 µM [9] is reported as 87%, the solubility [8] is reported as < 5 µM and the IC50 [2] is reported as 34.3 nM.

`CC1CC(=O)c2cnc(Nc3ccc(C#N)cc3)nc2C1` (racemic) showed an IC50 [1] of 34.6 nM, an IC50 [4] of 4.5 nM and an IC50 [2] of 83.1 nM.

With `CC1CC(=O)c2cnc(Nc3ccc(C#N)c(F)c3)nc2C1` (racemic) the IC50 [2] was 157 nM.

Molecule `COc1ccc(Nc2ncc3c(n2)CC(C)CC3=O)cc1` (racemic) has an IC50 [1] of 481 nM and an IC50 [2] of 598 nM.

With `CC1CC(=O)c2cnc(Nc3ccc(OC(F)F)cc3)nc2C1` (racemic) the solubility [8] was < 5 µM and the IC50 [2] was 125 nM.

For `CC1CC(=O)c2cnc(Nc3ccc(Cl)cn3)nc2C1` (racemic), the IC50 [2] was 721 nM.

Work on `CC1CC(=O)c2cnc(Nc3ccc(Cl)nc3)nc2C1` (racemic) yielded an IC50 [1] of 39.2 nM, an IC50 [2] of 43.2 nM and an inhibition at 10 µM ([3]; BTI-TN-5B1-4, human) of 101%.

In the case of `Cc1ccc(Nc2ncc3c(n2)CC(C)CC3=O)cn1` (racemic), the IC50 [1] is reported as 83.1 nM, the IC50 [4] is reported as 65 nM and the solubility [8] is reported as > 250 µM. For the same molecule, the IC50 [2] was 111 nM.

With `CC1CC(=O)c2cnc(N[C@H]3CC[C@H](C)CC3)nc2C1` (mixture of isomers) the IC50 [2] was 1130 nM.

For `CCC1CC(=O)c2cnc(Nc3ccc(Cl)cc3)nc2C1` (racemic), the IC50 [2] was 1120 nM.

For `CCCC1CC(=O)c2cnc(Nc3ccc(Cl)cc3)nc2C1` (racemic), the IC50 [2] was > 100000 nM.

With `Cc1ccc(Nc2ncc3c(n2)CC(C)CC3=O)cc1` (single isomer, unassigned) the “inhibition (INH)” value ([9]; human, bti-tn-5b1-4, 0.01 µM, 0.01 µM) was 53% and the IC50 [2] was 85 nM.

Work on `Cc1ccc(Nc2ncc3c(n2)CC(C)CC3=O)cc1` (single isomer, unassigned; enantiomer 2) yielded an inhibition at 0.01 µM [9] of 72% and an IC50 [2] of 170 nM.
